This note sets out measurements from patent US20230233690A1, “ANDROGEN RECEPTOR PROTEIN DEGRADERS” (THE REGENTS OF THE UNIVERSITY OF MICHIGAN, priority 2020, published 2023).

This assay addresses T1, AR protein (Homo sapiens, UniProt P10275).
T1 construct: endogenous in cells; host or cells: VCaP
T1 sequence (P10275 1-920): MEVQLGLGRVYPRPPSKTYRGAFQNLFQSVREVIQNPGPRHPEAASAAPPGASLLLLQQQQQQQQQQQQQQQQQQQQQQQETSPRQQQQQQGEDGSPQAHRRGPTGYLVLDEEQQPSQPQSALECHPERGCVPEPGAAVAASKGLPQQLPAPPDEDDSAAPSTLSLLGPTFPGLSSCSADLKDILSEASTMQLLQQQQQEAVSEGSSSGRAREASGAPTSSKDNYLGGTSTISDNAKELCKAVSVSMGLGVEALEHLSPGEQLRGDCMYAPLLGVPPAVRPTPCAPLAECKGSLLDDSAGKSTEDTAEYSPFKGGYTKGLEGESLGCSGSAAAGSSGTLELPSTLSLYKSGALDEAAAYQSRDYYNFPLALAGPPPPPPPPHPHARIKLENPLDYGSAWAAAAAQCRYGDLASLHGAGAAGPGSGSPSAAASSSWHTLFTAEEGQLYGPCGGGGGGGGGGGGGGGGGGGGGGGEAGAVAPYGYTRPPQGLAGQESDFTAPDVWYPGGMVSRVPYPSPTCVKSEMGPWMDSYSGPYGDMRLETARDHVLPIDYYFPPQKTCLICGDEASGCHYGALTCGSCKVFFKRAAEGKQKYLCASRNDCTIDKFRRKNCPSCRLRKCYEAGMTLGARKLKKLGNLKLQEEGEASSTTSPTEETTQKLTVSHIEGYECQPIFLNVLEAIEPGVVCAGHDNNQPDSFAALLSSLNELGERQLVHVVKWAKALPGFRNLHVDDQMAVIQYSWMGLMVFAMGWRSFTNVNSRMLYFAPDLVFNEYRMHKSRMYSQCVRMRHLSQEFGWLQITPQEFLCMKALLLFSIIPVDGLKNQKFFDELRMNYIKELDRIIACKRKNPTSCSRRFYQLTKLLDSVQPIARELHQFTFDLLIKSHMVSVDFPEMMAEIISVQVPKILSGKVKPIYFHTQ
Put plainly: Western blotting of AR protein degradation in VCaP cells. It is filed as cell-based. As to conditions: for AR protein degradation VCap 10 nM / AR protein degradation VCap 100 nM: 24 hr treatment. Here is the method:
The treated cells were lysed with RIPA buffer. […] GAPDH was used as a loading control.
Bands were quantified with ImageJ software. The relative numbers of each band obtained from normalization with its corresponding GAPDH level were compared with Prism 8 software. The DC50 values were produced from Prism 8, and the DC90 values were calculated with an equation=Bottom+(Top−Bottom)/(1+10^((Log EC50−X)*HillSlope) based on DC50 and Hillslope values.
In general terms: In western blotting, separated proteins are transferred to a membrane and probed.

With `N#Cc1ccc(O[C@H]2CC[C@H](NC(=O)c3ccc(NCCCCCCCCCCCNc4ccc5c(c4)C(=O)N(C4CCC(=O)NC4=O)C5=O)cc3)CC2)cc1Cl` (some centres unmarked) [compound 217, N-((1r,4r)-4-(3-chloro-4-cyanophenoxy)cyclohexyl)-4-((11-((2-(2,6-dioxopiperidin-3-yl)-1,3-dioxoisoindolin-5-yl)amino)undecyl)amino)benzamide], the “% AR protein degradation in VCaP Cells” value worked out at 7% (0.001 μM), 17% (0.01 μM), 39% (0.1 μM) and 35% (1 μM).

`N#Cc1ccc(O[C@H]2CC[C@H](NC(=O)c3ccc(N4CCN(C5CCN(c6ccc7c(c6)C(=O)N(C6CCC(=O)NC6=O)C7=O)CC5)CC4)cc3)CC2)cc1Cl` (some centres unmarked) [Cpd. No. 21, N-((1r,4r)-4-(3-chloro-4-cyanophenoxy)cyclohexyl)-4-(4-(1-(2-(2,6-dioxopiperidin-3-yl)-1,3-dioxoisoindolin-5-yl)piperidin-4-yl)piperazin-1-yl)benzamide]: the “AR protein degradation VCap 10 nM” value is “A (>90% degradation (24 hr treatment))” and the “AR protein degradation VCap 100 nM” value is on record as “A (>90% degradation (24 hr treatment))”.

In the case of `N#Cc1ccc(O[C@H]2CC[C@H](NC(=O)c3ccc(NCCCCCCCCNc4ccc5c(c4)C(=O)N(C4CCC(=O)NC4=O)C5=O)cc3)CC2)cc1Cl` (some centres unmarked) [compound 214, N-((1r,4r)-4-(3-chloro-4-cyanophenoxy)cyclohexyl)-4-((8-((2-(2,6-dioxopiperidin-3-yl)-1,3-dioxoisoindolin-5-yl)amino)octyl)amino)benzamide], the “% AR protein degradation in VCaP Cells” value turned out to be 27% (0.001 μM), 43% (0.01 μM), 65% (0.1 μM) and 46% (1 μM).

With `N#Cc1ccc(O[C@H]2CC[C@H](NC(=O)c3ccc(NCCCCNc4ccc5c(c4)C(=O)N(C4CCC(=O)NC4=O)C5=O)cc3)CC2)cc1Cl` (some centres unmarked) [compound 210, N-((1r,4r)-4-(3-chloro-4-cyanophenoxy)cyclohexyl)-4-((4-((2-(2,6-dioxopiperidin-3-yl)-1,3-dioxoisoindolin-5-yl)amino)butyl)amino)benzamide], the “% AR protein degradation in VCaP Cells” value by setting is: (0.001 μM) 43%; (0.01 μM) 70%; (0.1 μM) 55%; (1 μM) 38%.

With `N#Cc1ccc(O[C@H]2CC[C@H](NC(=O)c3ccc(N4CCN(CCCNc5ccc6c(c5)C(=O)N(C5CCC(=O)NC5=O)C6=O)CC4)cc3)CC2)cc1Cl` (some centres unmarked) [compound 219, N-((1r,4r)-4-(3-chloro-4-cyanophenoxy)cyclohexyl)-4-(4-(3-((2-(2,6-dioxopiperidin-3-yl)-1,3-dioxoisoindolin-5-yl)amino)propyl)piperazin-1-yl)benzamide], the “% AR protein degradation in VCaP Cells” value came to 18% (0.001 μM), 69% (0.01 μM), 80% (0.1 μM) and 59% (1 μM).

For the compound `N#Cc1ccc(O[C@H]2CC[C@H](NC(=O)c3ccc(N4CCN(CCCCCNc5ccc6c(c5)C(=O)N(C5CCC(=O)NC5=O)C6=O)CC4)cc3)CC2)cc1Cl` (some centres unmarked) [compound 221, N-((1r,4r)-4-(3-chloro-4-cyanophenoxy)cyclohexyl)-4-(4-(5-((2-(2,6-dioxopiperidin-3-yl)-1,3-dioxoisoindolin-5-yl)amino)pentyl)piperazin-1-yl)benzamide], the “% AR protein degradation in VCaP Cells” value by setting is: (0.001 μM) 17%; (0.01 μM) 22%; (0.1 μM) 51%; (1 μM) 34%.

Regarding `CN(c1ccc(C#N)c(Cl)c1)[C@H]1CC[C@H](NC(=O)c2ccc(N3CCN(C4CCN(c5ccc6c(c5)C(=O)N(C5CCC(=O)NC5=O)C6=O)CC4)CC3)cc2)CC1` (some centres unmarked) [compound 30], the “AR protein degradation VCap 10 nM” value is given as “A (>90% degradation (24 hr treatment))” and the “AR protein degradation VCap 100 nM” value is “A (>90% degradation (24 hr treatment))”.

Take `C[C@H]1C[C@@H](NC(=O)c2ccc(N3CCN(C4CN(c5ccc6c(c5)C(=O)N(C5CCC(=O)NC5=O)C6=O)C4)CC3)cc2)CC[C@@H]1Oc1ccc(C#N)c(Cl)c1` (some centres unmarked) [compound 26]: the “AR protein degradation VCap 10 nM” value is “A (>90% degradation (24 hr treatment))” and the “AR protein degradation VCap 100 nM” value is recorded as “A (>90% degradation (24 hr treatment))”.

For the compound `C[C@H]1C[C@H](NC(=O)c2ccc(N3CCN(CC4CCN(c5ccc6c(c5)C(=O)N(C5CCC(=O)NC5=O)C6=O)CC4)CC3)cc2)CC[C@H]1Oc1ccc(C#N)c(Cl)c1` (some centres unmarked) [compound 24], the “AR protein degradation VCap 10 nM” value is reported as “A (>90% degradation (24 hr treatment))” and the “AR protein degradation VCap 100 nM” value is “A (>90% degradation (24 hr treatment))”.

As for `C[C@H]1C[C@@H](NC(=O)c2ccc(N3CCN(CC4CCN(c5ccc6c(c5)C(=O)N(C5CCC(=O)NC5=O)C6=O)CC4)CC3)cc2)CC[C@@H]1Oc1ccc(C#N)c(Cl)c1` (some centres unmarked) [Cpd. No. 23], the “AR protein degradation VCap 10 nM” value is on record as “A (>90% degradation (24 hr treatment))” and the “AR protein degradation VCap 100 nM” value was “A (>90% degradation (24 hr treatment))”.

Regarding `N#Cc1ccc(O[C@H]2CC[C@H](NC(=O)c3ccc(N4CCN(CCCCNc5ccc6c(c5)C(=O)N(C5CCC(=O)NC5=O)C6=O)CC4)cc3)CC2)cc1Cl` (some centres unmarked) [compound 220, N-((1r,4r)-4-(3-chloro-4-cyanophenoxy)cyclohexyl)-4-(4-(4-((2-(2,6-dioxopiperidin-3-yl)-1,3-dioxoisoindolin-5-yl)amino)butyl)piperazin-1-yl)benzamide], the “% AR protein degradation in VCaP Cells” value reads like this: (0.001 μM) 18%; (0.01 μM) 60%; (0.1 μM) 80%; (1 μM) 62%.

Consider `N#Cc1ccc(O[C@H]2CC[C@H](NC(=O)c3ccc(N4CCN(CCNc5ccc6c(c5)C(=O)N(C5CCC(=O)NC5=O)C6=O)CC4)cc3)CC2)cc1Cl` (some centres unmarked) [compound 218, N-((1r,4r)-4-(3-chloro-4-cyanophenoxy)cyclohexyl)-4-(4-(2-((2-(2,6-dioxopiperidin-3-yl)-1,3-dioxoisoindolin-5-yl)amino)ethyl)piperazin-1-yl)benzamide], for which the “% AR protein degradation in VCaP Cells” value by setting is: (0.001 μM) 6%; (0.01 μM) 32%; (0.1 μM) 39%; (1 μM) 21%.

As to `N#Cc1ccc(O[C@H]2CC[C@H](NC(=O)c3ccc(NCCCCCCNc4ccc5c(c4)C(=O)N(C4CCC(=O)NC4=O)C5=O)cc3)CC2)cc1Cl` (some centres unmarked) [compound 212, N-((1r,4r)-4-(3-chloro-4-cyanophenoxy)cyclohexyl)-4-((6-((2-(2,6-dioxopiperidin-3-yl)-1,3-dioxoisoindolin-5-yl)amino)hexyl)amino)benzamide], the “% AR protein degradation in VCaP Cells” value reads like this: (0.001 μM) 25%; (0.01 μM) 70%; (0.1 μM) 86%; (1 μM) 82%.

On to `N#Cc1ccc(N[C@H]2CC[C@H](NC(=O)c3ccc(N4CCC(N5CCN(c6ccc7c(c6)C(=O)N(C6CCC(=O)NC6=O)C7=O)CC5)CC4)cc3)CC2)cc1Cl` (some centres unmarked) [compound 229, N-((1r,4r)-4-((3-chloro-4-cyanophenyl)amino)cyclohexyl)-4-(4-(4-(2-(2,6-dioxopiperidin-3-yl)-1,3-dioxoisoindolin-5-yl)piperazin-1-yl)piperidin-1-yl)benzamide], for which the “% AR protein degradation in VCaP Cells” value reads like this: (0.001 μM) 51%; (0.01 μM) 62%; (0.1 μM) 52%; (1 μM) 43%.

On to `N#Cc1ccc(O[C@H]2CC[C@H](NC(=O)c3ccc(NCCCCCCCNc4ccc5c(c4)C(=O)N(C4CCC(=O)NC4=O)C5=O)cc3)CC2)cc1Cl` (some centres unmarked) [compound 213, N-((1r,4r)-4-(3-chloro-4-cyanophenoxy)cyclohexyl)-4-((7-((2-(2,6-dioxopiperidin-3-yl)-1,3-dioxoisoindolin-5-yl)amino)heptyl)amino)benzamide], for which the “% AR protein degradation in VCaP Cells” value (0.001 μM) was found to be 17%, the “% AR protein degradation in VCaP Cells” value (0.01 μM) amounted to 40%, the “% AR protein degradation in VCaP Cells” value (0.1 μM) came out at 62% and the “% AR protein degradation in VCaP Cells” value (1 μM) was determined as 38%.
